The values below are quoted from earlier work in US20240238196A1 (Shilpa Medicare Limited, priority 2021, published 2024).

With `O=C(NC[C@H]1CN(c2ccc(N3CCOCC3=O)cc2)C(=O)O1)c1ccc(Cl)s1` [Rivaroxaban, 5-Chloro-N-({(5S)-2-oxo-3-[4-(3-oxo-4-morpholinyl)phenyl]-1,3-oxazolidin5-yl}methyl)-2-thiophenecarboxamide], the “Solubility in organic solvents” value (organic solvents, slightly soluble, according to CHMP assessment report for Xarelto) was 1000 to 10000 µg/mL. Further, the “Solubility in water (in words)” value (water) is recorded as “practically insoluble”.
